Experimental data as given in patent publication US6416998B1, “Plasmid encoding a modified steroid hormone” (Baylor College of Medicine, priority 1992, dated 2002).

What was measured:
[1] = biological target: T1, UP-1 mutant receptor (hPR) (Homo sapiens, UniProt P06401); assay: Yeast transcription assay (β-galactosidase activity); assay type: cell-based; settings: for activation of mutant receptor: different concentrations (FIG. 5A); for transcriptional activity (in words): 1 μM, 4 hours
T1 construct: the wild type receptor is truncated by 54 authentic amino acids and 12 novel amino acids are added at the C-terminus; expressed in transfected cells; host or cells: Saccharomyces cerevisiae BJ3505 transformed with the UP-1 plasmid
T1 sequence (P06401 with tags, fused parts or gaps): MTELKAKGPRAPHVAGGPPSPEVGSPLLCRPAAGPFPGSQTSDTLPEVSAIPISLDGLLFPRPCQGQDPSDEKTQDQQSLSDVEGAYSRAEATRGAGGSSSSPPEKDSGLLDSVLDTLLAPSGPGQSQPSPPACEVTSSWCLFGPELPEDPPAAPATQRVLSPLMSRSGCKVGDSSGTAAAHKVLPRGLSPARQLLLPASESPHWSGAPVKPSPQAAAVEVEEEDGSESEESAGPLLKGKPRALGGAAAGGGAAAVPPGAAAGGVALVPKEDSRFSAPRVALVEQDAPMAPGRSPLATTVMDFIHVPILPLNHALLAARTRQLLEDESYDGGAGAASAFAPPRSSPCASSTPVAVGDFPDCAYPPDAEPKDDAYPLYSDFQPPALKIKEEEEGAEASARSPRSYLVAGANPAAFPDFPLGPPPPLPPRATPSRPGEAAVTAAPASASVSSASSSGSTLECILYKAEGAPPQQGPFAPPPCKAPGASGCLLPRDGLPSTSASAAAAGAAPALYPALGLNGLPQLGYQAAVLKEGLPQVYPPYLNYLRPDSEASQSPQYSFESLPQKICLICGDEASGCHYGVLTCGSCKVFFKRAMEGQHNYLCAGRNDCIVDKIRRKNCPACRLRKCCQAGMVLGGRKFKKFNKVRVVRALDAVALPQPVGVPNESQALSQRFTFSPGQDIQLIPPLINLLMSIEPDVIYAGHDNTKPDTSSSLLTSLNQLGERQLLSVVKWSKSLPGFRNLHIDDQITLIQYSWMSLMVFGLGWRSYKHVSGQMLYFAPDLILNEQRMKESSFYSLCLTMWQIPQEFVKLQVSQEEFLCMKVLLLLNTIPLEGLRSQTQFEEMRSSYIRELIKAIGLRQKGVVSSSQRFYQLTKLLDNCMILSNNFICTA
Procedure: (§1) Saccharomyces cerevisiae cells containing YEphPRB and the reporter plasmid were grown overnight at 30° C. in minimal media containing 2% glucose. The cells were subcultured in fresh medium and allowed to grow until early mid-log phase (O.D.600nm=1.0). Induction of receptor was initiated by the addition of 100 μM copper sulfate to the culture. Cells were harvested by centrifugation at 1,500 ×g for 10 minutes and resuspended in the appropriate buffer. This and all subsequent steps of analysis of the yeast extracts were done at 4° C.
(§2) When the cell density reached O.D.600nm=1.0, hormones were added to the cultures.
(§3) The plate assays used to identify the receptor mutants are qualitative in nature. To further characterize the properties of UP-1, the activity of the receptor mutants was compared with that of the wild type receptor in a transcription assay. […] The β-galactosidase activity in the cell cytosol was then measured.

[2] = biological target: T2, wild type receptor (hPR-B) (Homo sapiens, UniProt P06401); assay: as above; assay type: cell-based, yeast (Saccharomyces cerevisiae); settings: 1 μM; for transcriptional activity (in words): 4 hours
T2 construct: expressed in transfected cells; host or cells: Saccharomyces cerevisiae BJ3505 transformed with YEphPR-B
T2 sequence (P06401 1-933): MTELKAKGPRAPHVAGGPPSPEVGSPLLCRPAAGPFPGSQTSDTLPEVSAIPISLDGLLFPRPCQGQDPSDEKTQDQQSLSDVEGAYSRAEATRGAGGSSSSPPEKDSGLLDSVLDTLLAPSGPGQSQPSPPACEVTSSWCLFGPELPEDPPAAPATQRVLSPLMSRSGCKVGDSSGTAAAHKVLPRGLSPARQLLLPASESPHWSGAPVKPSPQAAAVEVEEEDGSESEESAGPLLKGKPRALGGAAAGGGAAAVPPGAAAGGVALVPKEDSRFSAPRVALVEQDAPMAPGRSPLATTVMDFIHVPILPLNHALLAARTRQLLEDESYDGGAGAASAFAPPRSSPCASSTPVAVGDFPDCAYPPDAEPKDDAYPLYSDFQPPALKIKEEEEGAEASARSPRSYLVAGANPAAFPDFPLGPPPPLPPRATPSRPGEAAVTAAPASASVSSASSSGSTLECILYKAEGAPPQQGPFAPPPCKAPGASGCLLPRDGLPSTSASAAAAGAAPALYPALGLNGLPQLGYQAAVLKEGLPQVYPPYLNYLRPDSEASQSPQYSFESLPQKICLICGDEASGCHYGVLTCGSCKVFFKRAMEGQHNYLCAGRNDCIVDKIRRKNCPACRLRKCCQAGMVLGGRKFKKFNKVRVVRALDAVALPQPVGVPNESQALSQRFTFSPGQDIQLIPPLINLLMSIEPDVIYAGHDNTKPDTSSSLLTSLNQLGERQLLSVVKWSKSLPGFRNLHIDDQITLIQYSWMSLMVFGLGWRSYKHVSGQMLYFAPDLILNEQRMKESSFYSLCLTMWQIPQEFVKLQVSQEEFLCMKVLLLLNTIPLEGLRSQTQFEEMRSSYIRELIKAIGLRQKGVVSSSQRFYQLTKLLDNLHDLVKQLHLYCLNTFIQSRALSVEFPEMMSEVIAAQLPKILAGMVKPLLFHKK
Procedure: as §1, §2, §3

[3] = biological target: T3, YEphPR-B879 truncated receptor (Homo sapiens, UniProt P06401); assay: Yeast transcription assay; assay type: cell-based
T3 construct: YEphPR-B879, containing a stop codon corresponding to amino acid 880; expressed in transfected cells; host or cells: Saccharomyces cerevisiae (yeast)
T3 sequence (P06401 1-879): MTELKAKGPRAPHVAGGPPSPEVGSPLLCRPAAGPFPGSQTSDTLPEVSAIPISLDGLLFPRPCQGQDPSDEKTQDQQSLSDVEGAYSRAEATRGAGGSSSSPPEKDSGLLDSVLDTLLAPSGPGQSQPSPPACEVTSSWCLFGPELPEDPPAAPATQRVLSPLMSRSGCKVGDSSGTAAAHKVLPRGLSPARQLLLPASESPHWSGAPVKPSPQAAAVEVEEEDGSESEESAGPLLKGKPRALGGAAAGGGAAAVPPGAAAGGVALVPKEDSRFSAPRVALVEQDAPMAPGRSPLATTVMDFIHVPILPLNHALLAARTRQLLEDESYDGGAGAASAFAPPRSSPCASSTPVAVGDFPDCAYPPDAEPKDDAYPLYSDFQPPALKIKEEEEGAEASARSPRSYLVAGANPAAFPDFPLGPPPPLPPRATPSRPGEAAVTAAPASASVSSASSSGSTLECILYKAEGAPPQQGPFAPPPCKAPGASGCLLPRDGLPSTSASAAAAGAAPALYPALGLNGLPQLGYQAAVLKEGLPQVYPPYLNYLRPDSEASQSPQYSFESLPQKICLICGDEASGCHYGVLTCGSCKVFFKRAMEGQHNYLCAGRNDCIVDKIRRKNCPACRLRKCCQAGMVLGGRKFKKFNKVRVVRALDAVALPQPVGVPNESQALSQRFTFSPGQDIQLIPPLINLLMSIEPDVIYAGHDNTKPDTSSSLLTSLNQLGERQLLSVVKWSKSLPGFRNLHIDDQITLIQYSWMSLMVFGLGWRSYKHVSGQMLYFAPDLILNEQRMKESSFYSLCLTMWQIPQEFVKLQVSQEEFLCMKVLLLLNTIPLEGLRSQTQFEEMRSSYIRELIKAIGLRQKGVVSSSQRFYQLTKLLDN
Procedure: as §2
(§4) CJ236 cells were infected with mpPR90 (an M13 plasmid containing hPR cDNA).
(§5) Yeast cells were grown in the presence of 100 μM CuSO4. Transcriptional analysis was done as described above. Experiments were done in triplicate and transcriptional activities were normalized with respect to protein.

[4] = biological target: T4, YEphPRB891 truncated receptor (Homo sapiens, UniProt P06401); assay: Yeast transcription assay; assay type: cell-based
T4 construct: YEphPRB891, containing a stop codon at amino acid 892; expressed in transfected cells; host or cells: Saccharomyces cerevisiae (yeast)
T4 sequence (P06401 1-891): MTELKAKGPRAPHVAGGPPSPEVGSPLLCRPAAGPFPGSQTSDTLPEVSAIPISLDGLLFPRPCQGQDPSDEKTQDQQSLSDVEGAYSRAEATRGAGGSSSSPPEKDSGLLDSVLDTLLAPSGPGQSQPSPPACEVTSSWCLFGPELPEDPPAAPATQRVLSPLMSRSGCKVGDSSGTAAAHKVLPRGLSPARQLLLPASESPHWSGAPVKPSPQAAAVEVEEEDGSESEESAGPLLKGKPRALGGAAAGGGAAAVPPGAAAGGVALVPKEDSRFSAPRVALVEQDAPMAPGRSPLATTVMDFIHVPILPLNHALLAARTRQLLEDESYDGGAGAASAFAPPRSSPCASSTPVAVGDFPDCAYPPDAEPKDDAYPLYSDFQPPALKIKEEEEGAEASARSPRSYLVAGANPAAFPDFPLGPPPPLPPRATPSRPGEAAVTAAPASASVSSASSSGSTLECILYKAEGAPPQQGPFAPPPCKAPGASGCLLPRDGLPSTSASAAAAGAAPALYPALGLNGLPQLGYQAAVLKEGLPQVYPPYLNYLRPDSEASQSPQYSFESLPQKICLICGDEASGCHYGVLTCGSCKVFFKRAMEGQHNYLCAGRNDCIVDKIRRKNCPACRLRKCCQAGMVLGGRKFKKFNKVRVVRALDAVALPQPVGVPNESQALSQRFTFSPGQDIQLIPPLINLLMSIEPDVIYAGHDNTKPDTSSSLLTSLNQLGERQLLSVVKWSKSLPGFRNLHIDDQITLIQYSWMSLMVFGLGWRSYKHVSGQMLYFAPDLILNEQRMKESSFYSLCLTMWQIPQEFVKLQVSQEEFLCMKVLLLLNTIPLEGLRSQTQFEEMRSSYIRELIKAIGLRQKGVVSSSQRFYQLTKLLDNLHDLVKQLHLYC
Procedure: as §2, §4, §5

[5] = biological target: T5, wild type receptor (phPR-B) (Homo sapiens, UniProt P06401); assay: Transient transfection CAT assay in CV-1 cells; assay type: cell-based, monkey
T5 sequence (P06401 1-933): T2 sequence (P06401 1-933)
Procedure: (§6) Five μg of chloramphenicol acetyltransferase (CAT) reporter plasmid, containing two copies of a PRE/GRE from the tyrosine amino transferase gene linked to the thymidine kinase promoter ([…]), were used in transient cotransfection experiments together with 5 μg of wild type or mutant receptor DNAs.
(§7) CAT assays were performed as described above. In panel (B), CV-1 cells were transiently transfected as in (A).
Cell-type specific factors can influence the activity of the transactivating domains of steroid receptors. In order to evaluate this possibility, wild type and mutant receptors were transfected into CV-1 cells.

891 mutant (phPR-B891) = biological target: T6, 891 mutant (phPR-B891) (Homo sapiens, UniProt P06401); assay: Transient transfection CAT assay ([…]) in HeLa cells; assay type: cell-based; settings: 10^−7M
T6 construct: YEphPRB891, containing a stop codon at amino acid 892; expressed in transfected cells; host or cells: HeLa cells (A16)
T6 sequence (P06401 1-891): T4 sequence (P06401 1-891)
Procedure: as §6, §7

wild type PR (phPR-B) = biological target: T7, wild type PR (phPR-B) (Homo sapiens, UniProt P06401); assay: as above; assay type: cell-based; settings: 10^−7M, 48 hours
T7 sequence (P06401 1-933): T2 sequence (P06401 1-933)
Procedure: as §6, §7

| transcriptional activity (in words) [1] | transcriptional activity (in words) [2] | SMILES | further results |
| --- | --- | --- | --- |
| – | – | CN(C)c1ccc(C2CC3(C)C(CCC34CCCO4)C3CCC4=CC(=O)CCC4=C23)cc1 (stereo not drawn) [Org31376, (11β,14β,17α)-4′,5′-dihydro-11-(4-dimethylaminophenyl)-[spiroestra-4,9-diene-17,2′(3′H)-furan]-3-one] | activation of mutant receptor [1]: activated |
| – | – | C[C@H]1CC2=CC(=O)CCC2=C2[C@@H]1[C@@H]1CC[C@@]3(CCCO3)[C@@]1(C)C[C@@H]2c1ccc(N(C)C)cc1 [Org31806, (7β,11β,17β)-11-(4-dimethylaminophenyl)-7-methyl-4′,5′-dihydrospiro[ester-4,9-diene-17,2′(3′H)-furan]-3-one] | activation of mutant receptor [1]: activated |
| had no effect | – | CCC(=O)[C@@]1(C)CC[C@H]2[C@@H]3CCC4=CC(=O)CCC4=C3CC[C@@]21C [R5020] | – |
| inactive | inactive | C[C@]12CCC(=O)C=C1CC[C@@H]1[C@@H]2[C@@H](O)C[C@@]2(C)[C@H]1CC[C@]2(O)C(=O)CO [cortisol] | – |
| inactive | inactive | C[C@@H]1C[C@H]2[C@@H]3CCC4=CC(=O)C=C[C@]4(C)[C@@]3(F)[C@@H](O)C[C@]2(C)[C@@]1(O)C(=O)CO [dexamethasone] | – |
| inactive | inactive | COc1ccc2c(c1)CCC(c1ccccc1)=C2c1ccc(OCCN2CCCC2)cc1 [nafoxidine] | – |
| – | – | CC(=O)[C@H]1CC[C@H]2[C@@H]3CCC4=CC(=O)CC[C@]4(C)[C@H]3CC[C@]12C [progesterone] | activation of transcription [3]: inactive; activation of transcription [4]: inactive; receptor activation (CAT) [5]: activated; induction of CAT activity (891 mutant (phPR-B891)): no activity; induction of transcription of CAT gene reporter (wild type PR (phPR-B)): 3- to 4 fold; induction of transcription [2]: greater than 60 fold |

| SMILES | transcriptional activity (in words) [1] | transcriptional activity (in words) [2] | further results |
| --- | --- | --- | --- |
| C[C@]12CC[C@@H]3c4ccc(O)cc4CC[C@H]3[C@@H]1CC[C@@H]2O [estradiol] | inactive | inactive | – |
